Experimental findings from patent US12533417B2, “L-DOPA and/or DOPA decarboxylse inhibitors conjugated to sugar for the treatment of dopamine-responsive disorders” (B. G. Negev Technologies and Applications Ltd., at …, priority 2018, dated 2026) are described below.

A short description of data set [1]: Release of L-DOPA from L-DOPAM-1 and L-DOPAM-4 in human serum in vitro (Example 5). Particulars: 37° C., L-DOPA concentration by LC-MS (FIG. 13). Type of data set: in vitro ADME. As to the method:
(§1) The stability of one molecule of L-DOPA and one Mannitol (L-DOPAM-1, M.W. 361) in serum was evaluated according to the following procedure: • 1. A solution of 2 mg L-DOPAM in lml of serum was prepared; • 2. A 200 μl aliquot was immediately withdrawn from that solution; • 3. 180 μl of TCA (trichloroacetic acid) 0.6N solution was added; • 4. The obtained mixture was centrifuged (5,000 rpm, 15 min., 40° C.); • 5. The supernatant was filtrated through 0.22 μm filter; • 6. The filtrate was diluted 20 times and injected into Liquid chromatography-mass spectrometry (LC-MS) (column: LUNA 3u C18 (2) 100A; 150×1.0 mm). The eluents were A=Acetonitrile, B=H2O+0.1% Acetic Acid. The following LC gradient was used: […]
The stability of one molecule of L-DOPA and one of mannitol (L-DOPAM-1), and of four molecules of L-DOPA and one of mannitol (L-DOPAM-4) in serum was evaluated by the method disclosed in Example 4. L-DOPAM-1 and L-DOPAM-4 were added into human serum and incubated at 37° C. Samples were taken at various times after the addition of the drugs to the serum and L-DOPA concentration was determined by LC-MS.

The nature of data set [2]: Pharmacokinetic of L-DOPA following intravenous administration of L-DOPA and L-DOPAM-2 to mice. Particulars: for L-DOPA in the plasma: equivalent to 80 mg/kg L-DOPA, 4 and 8 hours after injection, no DOPA decarboxylase inhibitor. Type of data set: in vivo. The procedure: In order to analyze the stability of DOPAM-2 in vivo, mice were injected intravenously with either L-DOPAM-2 or L-DOPA, where in either case, an equimolar dose of L-DOPA was administered (equivalent to 80 mg/kg L-DOPA). Mice were sacrificed 30, 60, 120, 240, and 480 minutes after the injection of the tested drug, blood was collected and plasma obtained by centrifugation. L-DOPA concentration was determined by LC-MS. 3 mice were tested per each time point, and each point on the graph represents mean±SEM.

Data set [3] in a line: L-DOPA concentration in human serum after adding DOPAM, HPLC-MS with internal standard. Type of data set: in vitro ADME. The procedure: HPLC-MS area under the curve were examined after addition of various L-DOPA concentrations to serum (FIG. 10). […] DOPAM was added to human serum in vitro, and L-DOPA concentrations in serum at various timepoints were determined by HPLC-MS and quantified using an internal standard. DOPAM released L-DOPA continuously over at least 24 hours (FIG. 12). The concentration of L-DOPA in serum increased in a linear fashion during the first 6 hours after adding DOPAM to the serum, after which L-DOPA concentration continued to increase through the final time point examined in this experiment (24 hours after DOPAM addition; FIG. 12).

Data set [4] in a line: Stability of L-DOPAM in serum, LC-MS peak areas (Example 4). In kind it is in vitro ADME, human. Particulars: for Area L-DOPA (LC-MS peak area) / Area L-DOPAM (LC-MS peak area) / Area Mannitol (LC-MS peak area): L-DOPAM 2 mg/ml in serum, 36° C. The procedure: as §1
The L-DOPAM solution in serum was stored at 36° C. Steps 2-6 were repeated after 2, 4, 23 and 46.5 hours.
The areas of the L-DOPAM, L-DOPA and Mannitol peaks were determined by extraction of only the ions of interest (FIGS. 3-7). The L-DOPA metabolite dopamine was not detected.
In order to semi-quantitatively determine the stability of L-DOPAM, the ratio of the peak areas of L-DOPA versus L-DOPAM and Mannitol versus L-DOPAM was calculated. An increase of the ratio of L-DOPA and Mannitol over time indicates the breakdown of L-DOPAM in serum.

On to `NC(Cc1ccc(O)c(O)c1)C(=O)OCC(OC(=O)C(N)Cc1ccc(O)c(O)c1)C(O)C(O)C(COC(=O)C(N)Cc1ccc(O)c(O)c1)OC(=O)C(N)Cc1ccc(O)c(O)c1` [L-DOPAM-4], for which, in data set [1], the “course of levels after the increase” value is on record as “decreased slightly through the final time point examined after 72 hours”, the “time up to which levels increased” value came out at 24 h and the “time up to which levels increased linearly” value stood at 5 h.
`N[C@@H](Cc1ccc(O)c(O)c1)C(=O)O` [L-DOPA]: the “L-DOPA in the plasma” value in data set [2] was “no L-DOPA was detected”. Moreover, in data set [3], the “time L-DOPA present in serum” value is reported as “about 2 hours”.
On to `NC(Cc1ccc(O)c(O)c1)C(=O)OC(CO)C(O)C(O)C(O)CO` [L-DOPAM-1], for which the “course of levels after the increase” value in data set [1] is “gradual decrease at 24 and 48 hours”. For the same compound, the “time up to which levels increased” value in data set [1] was 8 h. For the same compound, the “L-DOPAM detection in serum” value in data set [4] (46 h after exposure of L-DOPAM to serum) is recorded as “still detected”. For the same compound, the “Area L-DOPA (LC-MS peak area)” value in data set [4] (time 0 h) is given as 1019288083; in data set [4] (time 2 h) it was 2345301782; in data set [4] (time 4 h) it was 2632498093; in data set [4] (time 23 h) it was 1539342894; in data set [4] (time 46.5 h), 26308871. In addition, the “Area L-DOPAM (LC-MS peak area)” value in data set [4] (time 0 h) was determined as 4065363001; in data set [4] (time 2 h), 3292402130; in data set [4] (time 4 h) it was 2146859775; in data set [4] (time 23 h), 498391022; in data set [4] (time 46.5 h) it was 460814075. For the same compound, the “Area Mannitol (LC-MS peak area)” value was 60908307 in data set [4] (time 0 h); 65437168 in data set [4] (time 2 h); 97930402 in data set [4] (time 4 h); 73274763 in data set [4] (time 23 h); 83932712 in data set [4] (time 46.5 h). Moreover, the Mannitol levels result in data set [4] (L-DOPAM in serum (FIG. 9)) is “increased over time”. In addition, in data set [4] (L-DOPAM in serum, 0-46.5 h, LC-MS), the “L-DOPA metabolite dopamine detected” value is “not detected”. For the same compound, the “Ratio L-DOPA/L-DOPAM (peak areas)” value in data set [4] (L-DOPAM in serum, time 0 h) is reported as 0.251; in data set [4] (L-DOPAM in serum, time 2 h), 0.712; in data set [4] (L-DOPAM in serum, time 4 h) it was 1.226; in data set [4] (L-DOPAM in serum, time 23 h), 3.089; in data set [4] (L-DOPAM in serum, time 46.5 h), 0.057. Besides, the “Ratio Mannitol/L-DOPAM (peak areas)” value in data set [4] (L-DOPAM in serum, time 0 h) amounted to 0.015; in data set [4] (L-DOPAM in serum, time 2 h), 0.020; in data set [4] (L-DOPAM in serum, time 4 h), 0.046; in data set [4] (L-DOPAM in serum, time 23 h), 0.147; in data set [4] (L-DOPAM in serum, time 46.5 h) it was 0.182. The “time up to which L-DOPA levels increased” value in data set [4] (L-DOPAM in serum, sharp decrease at the 46 h time point (FIG. 8)) was found to be 23 h. In addition, in data set [3] (DOPAM added to human serum in vitro, 37° C. (FIG. 12)), the “time over which L-DOPA was released continuously” value is listed as “at least 24 hours”. The “period of linear increase of L-DOPA concentration in serum” value in data set [3] (after adding DOPAM to human serum (FIG. 12)) worked out at 6 h. In addition, the “time L-DOPA present in serum” value in data set [3] is listed as “at least 24 hours”.
Take `NC(Cc1ccc(O)c(O)c1)C(=O)OCC(OC(=O)C(N)Cc1ccc(O)c(O)c1)C(O)C(O)C(O)CO` (centres unmarked) [DOPAM-2]: the “L-DOPA in the plasma” value in data set [2] is recorded as “significant levels of L-DOPA”. Further, the “plasma concentrations of L-DOPA compared with mice injected with L-DOPA” value in data set [2] (equivalent to 80 mg/kg L-DOPA, 60, 120, 240, and 480 minutes after injection) is given as “higher”.
